This is an account of results in US7803930B2, “Antisense modulation of apolipoprotein B-expression” (Isis Pharmaceuticals, Inc., priority 2002, dated 2010).

In the oligonucleotide strings, read from the 5' end, every base follows the letter of its sugar. An asterisk marks phosphorothioate; unmarked linkages are phosphodiester. Other units and linkages are bracketed, terminal groups are in braces. A string of capitals states the bases alone. e = 2'-O-(2-methoxyethyl) (MOE); [5mC] = 5-methylcytosine; d = 2'-deoxy (DNA)

In this data set the test system is mouse apolipoprotein B mRNA. Put plainly: Inhibition of mouse apolipoprotein B mRNA levels in primary mouse hepatocytes, real-time PCR. The note with it: for % INHIB: Table 3, 150 nM, averages from two experiments; for Percent Inhibition 50 nM: Table 4, 50 nM; for Percent Inhibition 150 nM: Table 4, 150 nM; for Percent Inhibition 300 nM: Table 4, 300 nM. The format is cell-based. As to the method: Primary mouse hepatocytes were prepared from CD-1 mice purchased from Charles River Labs (Wilmington, Mass.) and were routinely cultured in Hepatoyte Attachment Media (Gibco) supplemented with 10% Fetal Bovine Serum (Gibco/Life Technologies, Gaithersburg, Md.), 250 nM dexamethasone (Sigma), and 10 nM bovine insulin (Sigma). Cells were seeded into 96-well plates (Falcon-Primaria #3872) at a density of 10000 cells/well for use in RT-PCR analysis.
When cells reached 80% confluency, they were treated with oligonucleotide. For cells grown in 96-well plates, wells were washed once with 200 μL OPTI-MEM™-1 reduced-serum medium (Gibco BRL) and then treated with 130 μL of OPTI-MEM™-1 containing 3.75 μg/mL LIPOFECTIN™ (Gibco BRL) and the desired concentration of oligonucleotide. After 4-7 hours of treatment, the medium was replaced with fresh medium. Cells were harvested 16-24 hours after oligonucleotide treatment.
Quantitation of apolipoprotein B mRNA levels was determined by real-time quantitative PCR using the ABI PRISM™ 7700 Sequence Detection System (PE-Applied Biosystems, Foster City, Calif.) according to manufacturer's instructions. This is a closed-tube, non-gel-based, fluorescence detection system which allows high-throughput quantitation of polymerase chain reaction (PCR) products in real-time. As opposed to standard PCR, in which amplification products are quantitated after the PCR is completed, products in real-time quantitative PCR are quantitated as they accumulate. This is accomplished by including in the PCR reaction an oligonucleotide probe that anneals specifically between the forward and reverse PCR primers, and contains two fluorescent dyes. A reporter dye (e.g., JOE, FAM, or VIC, obtained from either Operon Technologies Inc., Alameda, Calif. or PE-Applied Biosystems, Foster City, Calif.) is attached to the 5′ end of the probe and a quencher dye (e.g., TAMRA, obtained from either Operon Technologies Inc., Alameda, Calif. or PE-Applied Biosystems, Foster City, Calif.) is attached to the 3′ end of the probe. When the probe and dyes are intact, reporter dye emission is quenched by the proximity of the 3′ quencher dye. During amplification, annealing of the probe to the target sequence creates a substrate that can be cleaved by the 5′-exonuclease activity of Taq polymerase. […] With each cycle, additional reporter dye molecules are cleaved from their respective probes, and the fluorescence intensity is monitored at regular intervals by laser optics built into the ABI PRISM™ 7700 Sequence Detection System. In each assay, a series of parallel reactions containing serial dilutions of mRNA from untreated control samples generates a standard curve that is used to quantitate the percent inhibition after antisense oligonucleotide treatment of test samples.
Probes and primers to mouse apolipoprotein B were designed to hybridize to a mouse apolipoprotein B sequence, using published sequence information (GenBank accession number M35186, incorporated herein as SEQ ID NO: 10). For mouse apolipoprotein B the PCR primers were: forward primer: CGTGGGCTCCAGCATTCTA (SEQ ID NO: 11) reverse primer: […] (SEQ ID NO: 12) and the PCR probe was: FAM-[…]-TAMRA SEQ ID NO: 13) where FAM (PE-Applied Biosystems, Foster City, Calif.) is the fluorescent reporter dye) and TAMRA (PE-Applied Biosystems, Foster City, Calif.) is the quencher dye. For mouse GAPDH the PCR primers were: forward primer: […] (SEQ ID NO: 14) reverse primer: […] (SEQ ID NO:15) and the PCR probe was: 5′ JOE-[…]-TAMRA 3′ (SEQ ID NO: 16) where JOE (PE-Applied Biosystems, Foster City, Calif.) is the fluorescent reporter dye) and TAMRA (PE-Applied Biosystems, Foster City, Calif.) is the quencher dye.
In accordance with the present invention, a series of oligonucleotides was designed to target different regions of the mouse apolipoprotein B RNA, using published sequence (GenBank accession number M35186, incorporated herein as SEQ ID NO: 10). […]
On the technique in general: Quantitative PCR measures a nucleic acid by following its amplification.

For the substance “147493 (eG*e[5mC]*eT*eT*e[5mC]*dA*dT*dT*dA*dT*dA*dG*dG*dA*dG*eG*eT*eG*eG*eT; antisense) [compound 147493]”, the “% INHIB” value is recorded as 41%.

As for “147494 (eA*e[5mC]*eA*eA*e[5mC]*dT*dG*dG*dG*dA*dT*dA*dG*dT*dG*eT*eA*eG*e[5mC]*e[5mC]; antisense) [compound 147494]”, the “% INHIB” value is listed as 84%.

As for “147495 (eG*eT*eT*eA*eG*dG*dA*d[5mC]*d[5mC]*dA*dG*dG*dG*dA*dT*eT*eG*eT*eG*eA; antisense) [compound 147495]”, the “% INHIB” value was found to be 0%.

Regarding “147496 (eA*e[5mC]*e[5mC]*eA*eT*dG*dG*dA*dA*dA*dA*d[5mC]*dT*dG*dG*e[5mC]*eA*eA*e[5mC]*eT; antisense) [compound 147496]”, the “% INHIB” value was found to be 19%.

With “147498 (eT*eG*eG*eG*e[5mC]*dA*dA*d[5mC]*dG*dA*dT*dA*dT*d[5mC]*dT*eG*eA*eT*eT*eG; antisense) [compound 147498]”, the “% INHIB” value is on record as 0%.

As for “147499 (e[5mC]*eT*eG*e[5mC]*eA*dG*dG*dG*d[5mC]*dG*dT*d[5mC]*dA*dG*dT*eG*eA*e[5mC]*eA*eA; antisense) [compound 147499]”, the “% INHIB” value amounted to 29%.

Regarding “147501 (e[5mC]*eT*eT*eG*eG*dT*dT*dA*dA*dA*d[5mC]*dT*dA*dA*dT*eG*eG*eT*eG*e[5mC]; antisense) [compound 147501]”, the “% INHIB” value came out at 18%.

Regarding “147502 (eA*eT*eG*eG*eG*dA*dG*d[5mC]*dA*dT*dG*dG*dA*dG*dG*eT*eT*eG*eG*e[5mC]; antisense) [compound 147502]”, the “% INHIB” value is recorded as 16%.

As to “147503 (eA*eA*eT*eG*eG*dA*dT*dG*dA*dT*dG*dA*dA*dA*d[5mC]*eA*eG*eT*eG*eG; antisense) [compound 147503]”, the “% INHIB” value turned out to be 26%.

As for “147505 (eG*eG*eA*eA*eG*dT*dG*dA*dG*dA*d[5mC]*dT*dT*dT*d[5mC]*eT*eA*eA*eG*e[5mC]; antisense) [compound 147505]”, the “% INHIB” value stood at 76%.

As to “147506 (eA*eG*eG*eA*eA*dG*dG*dA*dA*d[5mC]*dT*d[5mC]*dT*dT*dG*eA*eT*eA*eT*eT; antisense) [compound 147506]”, the “% INHIB” value amounted to 58%.

With “147507 (eA*eT*eT*eG*eG*d[5mC]*dT*dT*d[5mC]*dA*dT*dT*dG*dG*d[5mC]*eA*eA*e[5mC]*eA*e[5mC]; antisense) [compound 147507]”, the “% INHIB” value was found to be 81%.

On to “147759 (eA*eG*eG*eT*eG*dA*dG*dG*dA*dA*dG*dT*dT*dG*dG*eA*eA*eT*eT*e[5mC]; antisense) [compound 147759]”, for which the “% INHIB” value amounted to 19%.

“147761 (eG*eT*eT*e[5mC]*eA*dT*dG*dG*dA*dT*dT*d[5mC]*d[5mC]*dT*dT*e[5mC]*eA*eG*eG*eA; antisense) [compound 147761]”: the “% INHIB” value came to 45%.

Regarding “147762 (eA*eT*eG*e[5mC]*eT*d[5mC]*d[5mC]*dA*dT*dT*d[5mC]*dT*d[5mC]*dA*d[5mC]*eA*eT*eG*e[5mC]*eT; antisense) [compound 147762]”, the “% INHIB” value is 46%.

With “147763 (eT*eG*e[5mC]*eG*eA*d[5mC]*dT*dG*dT*dG*dT*d[5mC]*dT*dG*dA*eT*eT*eT*e[5mC]*e[5mC]; antisense) [compound 147763]”, the “% INHIB” value is recorded as 34%.

For the substance “147765 (eA*eG*eG*e[5mC]*e[5mC]*d[5mC]*dA*dG*dT*dT*d[5mC]*d[5mC]*dA*dT*dG*eA*e[5mC]*e[5mC]*e[5mC]*eT; antisense) [compound 147765]”, the “% INHIB” value was determined as 59%.

On to “147766 (eG*eG*eA*eG*e[5mC]*d[5mC]*d[5mC]*dA*d[5mC]*dG*dT*dG*d[5mC]*dT*dG*eA*eG*eA*eT*eT; antisense) [compound 147766]”, for which the “% INHIB” value is recorded as 59%.

As to “147767 (e[5mC]*eG*eT*e[5mC]*e[5mC]*dT*dT*dG*dA*dG*d[5mC]*dA*dG*dT*dG*e[5mC]*e[5mC]*e[5mC]*eG*eA; antisense) [compound 147767]”, the “% INHIB” value was 5%.

“147768 (e[5mC]*e[5mC]*e[5mC]*eA*eT*dA*dT*dG*dG*dA*dG*dA*dA*dA*dT*e[5mC]*e[5mC]*eT*eT*e[5mC]; antisense) [compound 147768]”: the “% INHIB” value was found to be 24%.

As for “147769 (e[5mC]*eA*eT*eG*e[5mC]*d[5mC]*dT*dG*dG*dA*dA*dG*d[5mC]*d[5mC]*dA*eG*eT*eG*eT*e[5mC]) [compound 147769]”, the “% INHIB” value was determined as 89%, the “Percent Inhibition 50 nM” value is on record as 3%, the “Percent Inhibition 150 nM” value was determined as 14% and the “Percent Inhibition 300 nM” value was 28%.

Take “147770 (eG*eT*eG*eT*eT*dG*dA*dA*dT*d[5mC]*d[5mC]*d[5mC]*dT*dT*dG*eA*eA*eA*eT*e[5mC]; antisense) [compound 147770]”: the “% INHIB” value is reported as 67%.

As to “147771 (eG*eG*eT*eA*eA*dA*dG*dT*dT*dG*d[5mC]*d[5mC]*d[5mC]*dA*dT*eG*eG*e[5mC]*eT*eG; antisense) [compound 147771]”, the “% INHIB” value is given as 68%.

On to “147772 (antisense eG*eT*eT*eA*eT*dA*dA*dA*dG*dT*d[5mC]*d[5mC]*dA*dG*d[5mC]*eA*eT*eT*eG*eG) [compound 147772]”, for which the “% INHIB” value is reported as 78%.

Consider “147773 (antisense e[5mC]*eA*eT*e[5mC]*eA*dG*dA*d[5mC]*dG*dT*dG*dA*dT*dG*dT*eT*e[5mC]*e[5mC]*e[5mC]*eT) [compound 147773]”, for which the “% INHIB” value turned out to be 85%.

Take “147774 (antisense eT*eG*eG*e[5mC]*eT*dA*dG*dT*dT*dT*d[5mC]*dA*dA*dT*d[5mC]*e[5mC]*e[5mC]*e[5mC]*eT*eT) [compound 147774]”: the “% INHIB” value was 84%.

Regarding “147775 (antisense e[5mC]*eT*eG*eT*e[5mC]*dA*dT*dG*dA*d[5mC]*dT*dG*d[5mC]*d[5mC]*d[5mC]*eT*eT*eT*eA*e[5mC]) [compound 147775]”, the “% INHIB” value is on record as 52%.

For “147776 (antisense eG*e[5mC]*eT*eT*eG*dA*dA*dG*dT*dT*d[5mC]*dA*dT*dT*dG*eA*eG*eA*eA*eT) [compound 147776]”, the “% INHIB” value is listed as 92%, the “Percent Inhibition 50 nM” value is recorded as 0%, the “Percent Inhibition 150 nM” value is on record as 17% and the “Percent Inhibition 300 nM” value is on record as 44%.

On to “147778 (antisense eT*e[5mC]*eA*eG*eA*dT*dA*dT*dA*d[5mC]*dA*dT*dT*dG*dG*e[5mC]*eT*eT*e[5mC]*eA) [compound 147778]”, for which the “% INHIB” value amounted to 14%.
